{
  "source": "patent US20200197341A1",
  "about": "“IMMUNMODULATION FOR PREVENTION OF POOR HEALING OF MUSCULOSKELETAL INJURIES IN COMPROMISED PATIENTS” (CHARITÉ UNIVERSITÄTSMEDIZIN BERLIN, priority 2017, published 2020)",
  "key": {"[1]": {"system": "femur mouse osteotomies", "test": "Mouse femur osteotomy with fibrin release system, μCT of newly formed bone", "format": "in vivo", "description": "Mouse experiments were performed with 12-week-old C57BL/6 females (n=6, each sample type) (Charles River Laboratories) according to the policies and principles established by the Animal Welfare Act, the National Institutes of Health Guide for the Care and Use of Laboratory Animals, and the National Animal Welfare Guidelines. All animal experiments were approved by the local legal representative. Animals were kept under obligatory hygiene standards that were monitored according to the FELASA standards.\nThe osteotomy was performed on the left femur. After shaving and disinfecting the operation area of isoflurane-anesthetized animals, a lateral longitudinal incision of the skin (2 mm) from knee to hip was performed for a mid-diaphyseal approach to the femur. The femur was exposed by blunt preparation of Musculus vastus lateralis and Muscculus biceps femoris, carefully sparing the sciatic nerve. Serial drilling for pin placement (0.45 mm diameter) through the connector bar of the external fixator (MouseExFix, RlSystem, Davos, Switzerland) was performed, thus positioning the external fixator laterally in parallel to the femur. A 0.70 mm osteotomy was performed between the middle pins using a Gigli wire saw (RISystem, Davos, Switzerland). […]\nThe newly formed mineralized bone tissues were analyzed using high-resolution micro computed tomography (μCT). […]"}, "[2]": {"system": "drill hole in the diaphyseal and metaphyseal bone", "test": "Sheep drill hole bone healing model, μCT evaluation of bone formation", "format": "in vivo", "conditions": "after 3 and 9 weeks, Iloprost in collagen scaffold (burst release), applied immediately, 1 ml Ilomedin per two scaffolds", "source_text": "Prior publications, e.g. US 20150164853 A1, stated that immediate use of Iloprost locally to enhance bone healing is beneficial. To investigate this a high dose of Iloprost was used in a sheep bone healing model where the agent was applied in a collagen scaffold, which has a burst-release dynamic.\nBone formation has been analyzed in a drill hole model (Establishment of a preclinical ovine screening model for the investigation of bone tissue engineering strategies in cancellous and cortical bone defects. Pobloth A M, Johnson K A, Schell H, Kolarczik N, Wulsten D, Duda G N, Schmidt-Bleek K. BMC Musculoskelet Disord. 2016 Mar. 1; 17:111.). The empty control group and the collagen only group were used as negative controls while the autologous spongiosa group, the current gold standard in bone therapy, was used as a positive control. In the Ilomedin group a supraphysiological dosis of 1 ml Iloprost (Ilomedin, […] Infusionslosung, Bayer Vital GmbH, Leverkusen, Deutschland) per two scaffolds was used."}},
  "note": "Entries after “also recorded” stand apart in the source; their conditions may differ.",
  "data": [
    {"smiles": "CC#CCC(C)[C@H](O)/C=C/[C@@H]1[C@H]2C/C(=C/CCCC(=O)O)C[C@H]2C[C@H]1O", "note": "(stereo partly drawn) [Iloprost]", "values": [
      {"measurement": "newly formed bone volume (BV)", "setting": "[1]; mouse femur osteotomy, 21 days healing, fibrin release system with 3 μM Iloprost in core, median, N=6, p=0.016 vs vehicle", "result": 1.347, "unit": "mm^3"},
      {"measurement": "volumes of newly formed bone vs empty vehicle control (μCT)", "setting": "[1]; mouse, after 21 days of regeneration, Iloprost loaded release system", "result": "significantly increased volumes of newly formed bone"},
      {"measurement": "bone formation in a drill hole (μCT)", "setting": "[2]", "result": "No differences between the collagen group and the collagen Iloprost loaded group; also recorded: no enhanced bone formation was detectable"}
    ]}
  ]
}
